Reference: publication PMC5340622 (Cancer discovery, 2016)

Columns and labels:
E380Q mutant ER = test: ERE-luciferase inhibition, doxycycline-induced E380Q ER in MCF7 cells; format: cell-based; conditions: MCF7, regular medium
S463P mutant ER = test: ERE-luciferase inhibition, doxycycline-induced S463P ER in MCF7 cells; format: cell-based; conditions: MCF7, regular medium
MCF7 WT cells = test: Proliferation assay; format: cell-based; conditions: Homo sapiens, MCF7, read-out: IC50, growth inhibition
[1] = system: MCF7 inducible HA-ER WT tumors; test: MCF7 inducible HA-ER WT xenograft; format: in vivo, mice; conditions: fulvestrant 200mg/kg twice weekly s.c.
[2] = system: MCF7 inducible HA-ER E380Q tumors; test: MCF7 inducible HA-ER E380Q xenograft; format: in vivo, mice; conditions: fulvestrant 200mg/kg twice weekly s.c.
[3] = system: MCF7 inducible HA-ER S463P tumors; test: MCF7 inducible HA-ER S463P xenograft; format: in vivo, mice; conditions: fulvestrant 200mg/kg twice weekly s.c.
in vivo = conditions: mouse, serum, other: AZD9496 oral (gavage); fulvestrant subcutaneous
[4] = system: WT and mutant cell lines (MCF7); test: Proliferation of WT and mutant ER MCF7 cell lines with other SERDs; format: cell-based; conditions: WT and all mutant cell lines

SMILES	fold higher IC99 as compared to WT (E380Q mutant ER) [fold]	fold higher IC99 as compared to WT (S463P mutant ER) [fold]	IC50 (MCF7 WT cells) [pM]	tumor growth inhibition [1]	tumor growth inhibition [2]	tumor growth inhibition [3]	AUC (in vivo) [µM·h]	Cmax (in vivo) [µM]	inhibition of cell proliferation [4]
C[C@]12CC[C@@H]3c4ccc(O)cc4C[C@@H](CCCCCCCCC[S+]([O-])CCCC(F)(F)C(F)(F)F)[C@H]3[C@@H]1CC[C@@H]2O (some centres unmarked) [fulvestrant]	2	2	400	fully inhibited the growth	fully inhibited the growth	fully inhibited the growth	5.29	0.65	–
C[C@@H]1Cc2c([nH]c3ccccc23)[C@@H](c2c(F)cc(/C=C/C(=O)O)cc2F)N1CC(C)(C)F [AZD9496, (E)-3-(3,5-Difluoro-4-((1R,3R)-2-(2-fluoro-2-methylpropyl)-3-methyl-2,3,4,9-tetra hydro-1H–pyrido[3,4-b]indol-1-yl)phenyl)acrylic Acid]	–	–	400	–	–	–	218	59	capable of inhibiting cell proliferation by all mutants
C[C@]12C[C@H](c3ccc(OCCCCCS(=O)(=O)CCCC(F)(F)C(F)(F)F)cc3)[C@@H]3c4ccc(O)cc4CC[C@H]3[C@@H]1CC[C@@H]2O [RU58668]	–	–	–	–	–	–	–	–	capable of inhibiting cell proliferation by all mutants
CC/C(=C(/c1ccc(/C=C/C(=O)O)cc1)c1ccc2[nH]ncc2c1)c1ccc(F)cc1Cl [GDC-0810]	–	–	–	–	–	–	–	–	capable of inhibiting cell proliferation by all mutants
